These results are taken from ChEMBL document CHEMBL4665900, “Novel Pyrido-pyrimidinones and Pteridinones as Endoribonuclease Inositol Requiring Enzyme 1 (IRE1α) Inhibitors for Treating Cancer” (ACS Med Chem Lett, 2020).

By pIC50 is commonly meant −log10 of the IC50, conventionally taken in molar units. Low readings indicate a large IC50, high ones a small IC50.

This assay has as its target Serine/threonine-protein kinase/endoribonuclease IRE1 (Homo sapiens, UniProt O75460). Nature of the assay: Inhibition of human His-tagged IRE1alpha expressed in Sf9 insect cells preincubated for 1 hr followed by Alexa fluor 647-labeled probe addition and measured after 1 hr by TR-FRET assay. (In general: TR-FRET usually uses a lanthanide donor and a delayed reading to cut background.)

Each structure is given as a SMILES string. pIC50: −log10 of the molar value.

Sequence of Serine/threonine-protein kinase/endoribonuclease IRE1 (O75460 whole entry): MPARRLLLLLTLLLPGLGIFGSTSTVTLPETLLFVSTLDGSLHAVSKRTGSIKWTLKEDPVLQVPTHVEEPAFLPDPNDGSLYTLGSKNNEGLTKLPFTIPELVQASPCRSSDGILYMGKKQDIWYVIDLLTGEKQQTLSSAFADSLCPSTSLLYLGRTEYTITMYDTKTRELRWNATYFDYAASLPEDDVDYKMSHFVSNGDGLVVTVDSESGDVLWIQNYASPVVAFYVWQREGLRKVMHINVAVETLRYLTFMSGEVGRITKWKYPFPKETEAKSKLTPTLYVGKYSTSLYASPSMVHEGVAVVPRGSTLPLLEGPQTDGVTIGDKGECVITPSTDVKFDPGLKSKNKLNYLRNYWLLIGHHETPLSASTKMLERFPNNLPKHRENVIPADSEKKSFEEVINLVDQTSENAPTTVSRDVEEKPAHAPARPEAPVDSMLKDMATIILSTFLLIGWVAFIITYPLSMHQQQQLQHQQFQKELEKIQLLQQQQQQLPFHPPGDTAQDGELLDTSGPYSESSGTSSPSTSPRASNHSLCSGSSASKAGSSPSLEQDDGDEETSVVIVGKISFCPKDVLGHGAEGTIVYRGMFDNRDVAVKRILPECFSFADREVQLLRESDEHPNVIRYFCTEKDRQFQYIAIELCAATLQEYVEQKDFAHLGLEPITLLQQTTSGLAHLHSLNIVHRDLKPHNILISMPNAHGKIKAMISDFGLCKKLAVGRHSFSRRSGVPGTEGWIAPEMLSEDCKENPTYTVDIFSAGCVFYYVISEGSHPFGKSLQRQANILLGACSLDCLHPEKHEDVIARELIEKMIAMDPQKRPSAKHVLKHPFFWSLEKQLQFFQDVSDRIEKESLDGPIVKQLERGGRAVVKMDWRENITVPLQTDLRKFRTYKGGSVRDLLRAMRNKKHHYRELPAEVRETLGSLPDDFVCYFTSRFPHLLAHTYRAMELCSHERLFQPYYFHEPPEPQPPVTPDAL

In turn, `CC(C)n1c(=O)c(-c2c(F)cc(NS(=O)(=O)Cc3ccc(F)cc3)cc2F)cc2cnc(N[C@H]3CC[C@H](N(C)C)CC3)nc21` showed a pIC50 of 10.10.
The value for `CC(C)n1c(=O)c(-c2cc(F)c(NS(=O)(=O)CC3(C(F)(F)F)CC3)c(F)c2)nc2cnc(N[C@H]3CC[C@H](N(C)C)CC3)nc21` was 10.00; that for `COCCN(C)[C@H]1CC[C@H](Nc2ncc3cc(-c4ccc(NS(=O)(=O)Cc5ccc(F)cc5)c(F)c4)c(=O)n(C(C)C)c3n2)CC1` was 10.30; that for `COc1cccc(CS(=O)(=O)Nc2c(F)cc(-c3cc4cnc(N[C@@H]5CNC[C@@H](F)C5)nc4n(C(C)C)c3=O)c(F)c2F)c1` was 9.96.
The result for `CC(C)n1c(=O)c(-c2ccc(NS(=O)(=O)Cc3ccc(C#N)cc3)c(F)c2)nc2cnc(N[C@@H]3CNC[C@@H](F)C3)nc21` reads 10.00; that for `Cc1ccc(CS(=O)(=O)Nc2ccc(-c3nc4cnc(N[C@@H]5CNC[C@@H](F)C5)nc4n(C(C)C)c3=O)cc2F)c(C#N)c1`, 10.05.
